The supplement of paper PMC10307832

Tests used:
Assay in all cases: relative viability (nuclei count vs DMSO), 5 days (fraction); higher = more cells survive
[1] = compound: CN1CCC(CC1)OC2=CC(=C(C=C2)NC3=NC=C4C(=N3)N(C(=O)N4C)C5CCCC5)OC [AZ3146] + C[C@@H](Oc1cc(-c2cnn(C3CCNCC3)c2)cnc1N)c1c(Cl)ccc(F)c1Cl [Crizotinib] (partner 1 µM)
In short: (§1)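 Medians of duplicate plates are given as relative viability. That measure is the nuclei count in treated wells divided by the count in vehicle wells. Counts were taken on 4× images of lung cancer cell lines in 1536-well plates, 5 days after pin-tool dosing the day after seeding with one drug alone or a fixed anchor-drug dose plus five library-drug doses (not always all listed) in √10 steps.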

[2] = compound: CCOC(=O)CCNc1cc(N2CCc3ccccc3CC2)nc(-c2ccccn2)n1 [GSK-J4] + CC1(C)CCC(c2ccc(Cl)cc2)=C(CN2CCN(c3ccc(C(=O)NS(=O)(=O)c4ccc(N[C@H](CCN5CCOCC5)CSc5ccccc5)c(S(=O)(=O)C(F)(F)F)c4)cc3)CC2)C1 [Navitoclax] (partner 0.5 µM)
In short: as §1

[3] = compound: CCOC(=O)CCNc1cc(N2CCc3ccccc3CC2)nc(-c2ccccn2)n1 [GSK-J4] + CC(=O)c1c(C)c2cnc(Nc3ccc(N4CCNCC4)cn3)nc2n(C2CCCC2)c1=O [Palbociclib] (partner 0.5 µM)
In short: as §1

[4] = compound: CN1CCC(CC1)OC2=CC(=C(C=C2)NC3=NC=C4C(=N3)N(C(=O)N4C)C5CCCC5)OC [AZ3146] + C[C@]1(O)C[C@@H](c2nc(-c3ccc4ccc(-c5ccccc5)nc4c3)c3c(N)nccn32)C1 [Linsitinib] (partner 1 µM)
In short: as §1

Row | Cell Line | relative viability ([1]; first compound 0.08 µM) | relative viability ([1]; first compound 0.253 µM) | relative viability ([1]; first compound 0.8 µM) | relative viability ([1]; first compound 2.53 µM) | relative viability ([1]; first compound 8 µM) | relative viability ([2]; first compound 0.5 µM) | relative viability ([2]; first compound 1.581 µM) | relative viability ([2]; first compound 5 µM) | relative viability ([2]; first compound 15.81 µM) | relative viability ([2]; first compound 50 µM) | relative viability ([3]; first compound 0.5 µM) | relative viability ([3]; first compound 1.581 µM) | relative viability ([3]; first compound 5 µM) | relative viability ([3]; first compound 15.81 µM) | relative viability ([3]; first compound 50 µM) | relative viability ([4]; first compound 0.08 µM) | relative viability ([4]; first compound 0.253 µM) | relative viability ([4]; first compound 0.8 µM) | relative viability ([4]; first compound 2.53 µM) | relative viability ([4]; first compound 8 µM)
1 | HCC-44 | 0.779 | 0.791 | 0.724 | 0.796 | 0.668 | 0.973 | 0.91 | 1.08 | 0.817 | 0.898 | 0.933 | 0.916 | 0.989 | 0.979 | 1.03 | 0.598 | 0.618 | 0.685 | 0.718 | 0.675
2 | HCC-78 |  | 0.326 | 0.329 | 0.387 | 0.361 | 0.779 | 0.681 | 1.01 |  | 0.689 | 0.498 |  | 0.48 | 0.435 | 0.486 |  | 0.476 | 0.416 | 0.532 | 0.522
3 | HCC-366 | 0.514 | 0.695 | 0.246 | 0.192 | 0.0532 | 1.08 | 0.806 |  | 1.02 | 1.03 | 0.357 | 0.322 |  | 0.357 | 0.354 | 0.674 | 0.598 | 0.593 | 0.637 | 0.855
4 | HCC-827 | 0.943 | 0.859 | 1.04 | 0.913 | 0.911 | 1.02 | 0.991 | 1.06 | 1 | 0.994 | 0.539 | 0.46 | 0.543 | 0.431 | 0.411 | 0.907 | 0.889 | 0.946 | 1.02 | 1.01
5 | HOP-62 | 0.946 | 0.955 | 0.917 | 1.09 | 0.601 | 0.955 | 0.989 | 1.11 | 1.1 | 0.707 | 0.469 | 0.455 | 0.44 | 0.465 | 0.473 | 1.05 | 0.978 | 1.06 | 1.06 | 1.05
6 | IA-LM |  | 0.654 | 0.898 | 0.615 | 0.115 | 0.747 | 0.718 | 0.802 | 0.666 | 0.105 |  |  |  |  |  | 0.729 | 0.441 | 0.652 | 0.803 | 0.626
7 | LC-2-ad | 0.365 | 0.511 | 0.481 | 0.494 | 0.321 | 0.464 | 0.389 | 0.407 | 0.374 | 0.41 | 0.438 | 0.404 | 0.447 | 0.49 | 0.47 | 0.782 | 0.886 | 0.775 | 0.845 | 0.863
8 | LCLC-103H | 0.987 | 1.08 | 0.984 | 1.08 | 1.11 |  |  |  |  |  | 0.447 | 0.36 | 0.455 | 0.449 | 0.49 | 1.06 | 0.978 | 1.16 | 1.13 | 1.1
9 | NCI-H358 | 0.587 | 0.616 | 0.425 | 0.398 | 0.177 |  |  |  |  |  | 0.139 |  | 0.154 | 0.104 | 0.138 | 0.868 | 0.744 | 0.65 | 0.75 | 0.461
10 | NCI-H522 |  |  |  |  |  |  |  |  |  |  | 1.22 | 0.953 |  | 0.976 | 0.622 |  |  |  |  | 
11 | NCI-H596 | 1.02 | 0.947 | 1.02 | 1.02 | 1.01 | 1.02 | 0.955 | 1.1 | 0.846 | 0.977 |  |  |  |  |  | 1.1 | 1.01 | 1.01 | 1.04 | 1.1
12 | NCI-H650 | 0.571 | 0.721 | 0.827 | 0.781 | 0.542 |  |  |  |  |  | 0.309 | 0.283 |  | 0.255 | 0.239 | 0.539 | 0.805 | 0.8 | 1.26 | 0.779
13 | NCI-H661 | 0.979 | 1.14 | 1.03 | 1.11 | 0.814 |  |  |  |  |  | 0.41 | 0.38 | 0.388 | 0.409 | 0.361 | 0.61 | 0.6 | 0.603 | 0.584 | 0.616
14 | NCI-H1299 | 0.964 | 0.961 | 0.952 | 0.636 | 0.511 | 1.08 | 0.875 | 0.955 | 1.04 | 0.971 |  |  |  |  |  | 0.941 | 0.981 | 0.964 | 0.99 | 1.03
15 | NCI-H1395 |  |  |  |  |  | 1.31 | 1.08 | 0.896 | 1.05 | 0.898 | 0.546 | 0.518 | 0.576 | 0.556 | 0.61 | 0.986 | 1.1 | 1.28 | 1.37 | 1.05
16 | NCI-H1563 | 0.874 | 0.896 | 0.954 | 0.802 | 0.777 |  |  |  |  |  |  |  |  |  |  | 1.09 | 1.36 | 1.15 | 1.24 | 1.35
17 | NCI-H1648 |  |  |  |  |  |  |  |  |  |  | 0.293 |  | 0.358 |  | 0.3 |  |  |  |  | 
18 | NCI-H1650 | 0.933 | 0.95 | 0.84 | 0.95 | 0.489 | 1.07 | 0.916 | 1.33 | 0.995 | 0.565 | 0.34 | 0.287 | 0.353 | 0.371 | 0.283 |  |  |  |  | 
19 | NCI-H1703 | 0.447 | 0.59 | 0.384 | 0.365 | 0.241 | 0.944 | 0.963 | 0.776 | 1.08 | 1.25 |  |  |  |  |  | 0.824 | 1.15 | 0.637 | 0.872 | 0.924
20 | NCI-H1793 |  |  |  |  |  | 0.389 | 0.473 | 0.379 | 0.307 | 0.273 | 0.298 | 0.264 | 0.28 | 0.204 | 0.162 | 0.841 | 0.921 | 0.638 | 0.813 | 1.02
21 | NCI-H2170 | 1.04 | 1.07 | 1.22 | 1.11 | 1.03 | 0.585 | 0.547 | 0.678 | 0.44 | 0.48 | 0.372 | 0.393 | 0.392 | 0.311 | 0.378 |  |  |  |  | 
22 | NCI-H2342 |  |  |  |  |  |  |  |  |  |  | 0.646 | 0.48 | 0.596 | 0.507 | 0.678 |  |  |  |  | 
23 | SW 900 |  |  |  |  |  |  |  |  |  |  | 0.575 | 0.496 | 0.546 | 0.517 | 0.436 |  |  |  |  | 
